Row | Structure (SMILES) | melting point [°C]
1 | O=C(Nc1ccc(-n2nc(C(F)(F)F)cc2C(F)(F)F)cc1)c1ccccc1C(F)(F)F | 133 to 135
2 | CN(C)Cc1ccc(-c2cc3ncc(C#N)c(Cl)c3s2)cc1 | 166 to 168
3 | Oc1ccc2nc(-c3ccccc3)cc(Cl)c2c1 | 180 to 181
4 | CC(C)c1nc(-c2ccccc2)nc(-c2ccc(F)cc2)c1C=O | 127 to 129
5 | NC1SC2=CC=CC2=C1C(=O)c1ccc(Br)cc1 (stereo not drawn) | 205 to 206
6 | O=C(NC1=NN(c2ccc(Cl)c(Cl)c2)CC1)C(F)(F)F | 181 to 183
7 | Oc1ccc(-c2ccc3c(Cl)c(O)ccc3n2)cc1 | 215 to 216
8 | CC(C)(OCc1nn(Cc2ccccc2)c2ccccc12)C(=O)NCC(=O)O | 157 to 158
9 | COc1ccccc1N1CCN(C(=O)Nc2cc(C(C)O)c(C)nc2OC)CC1 (stereo not drawn) | 88 to 90
10 | O=C(O)c1ccc(-n2c(-c3ccccc3)cc3c2CCCC3)cc1 | 244 to 246
11 | O=c1oc2ccc(-c3ccc(F)cc3F)cc2c(=O)n1-c1cc(F)ccc1F | 144 to 145
12 | O=c1c(CCCc2ccncc2)cc2cccnc2n1-c1ccc2nsnc2c1 | 194 to 196
13 | CC1(C)CCNC(=O)C(Cl)(Cl)C1 | 108 to 110
14 | CN(C)c1ccc(-c2cc(-c3ccccc3)nc(-c3ccccc3)c2)cc1 | 128 to 129
15 | CC1(C)C2CC[C@]1(C)C(=O)C(C(=O)Nc1cccc(C(F)(F)F)c1)C2=O (stereo partly drawn) | 60 to 62
16 | COc1ccc(-c2cc3c(N4CCOCC4)nnc(N4CCOCC4)c3c(C)n2)cc1 | 206 to 209
17 | CC(C(=O)O)n1ccc2c(OCc3ccccc3)cccc21 (stereo not drawn) | 143 to 146
18 | CC(=O)Nc1ccc(C(=O)NCCN2[C@H](C)Cc3ccsc3[C@@H]2C)cc1 (relative stereo) | 161 to 162
19 | N#CC(C#N)C1(C#N)CCSc2ccccc21 (stereo not drawn) | 136 to 137
20 | CCCc1nc2c(N)nc3cccnc3c2n1CC1(O)CCCC1 | 184 to 186
21 | CCOP(=O)(C=Cc1ccc(N)cc1)OCC | 81
22 | CNC(=NO)NCc1ccccc1 | 97 to 99

Row | Structure (SMILES) | melting point [°C]
23 | COc1ccc(C(=O)CCC(=O)O)cc1OC1CCCC1 | 111 to 113
24 | C[C@@H]1O[C@](/C=C/C2CC2)(C(F)(F)F)c2c(ccc3c2OCO3)NC1=O (relative stereo) | 236 to 237
25 | O=C1O[C@](CCc2cccc(O)c2)(C2CCCC2)CC(O)=C1N(c1ccccc1)c1ccccc1 | 90 to 92
26 | N#CC(N)C=Cc1ccccc1 (stereo not drawn) | 79
27 | COc1ccc(-c2nc(CN3CCOCC3)nc3cc(OC)c(OC)cc23)cc1OC | 148 to 150
28 | CC(C)c1cccc(C(C)C)c1NC(=O)NCC1(c2ccc3ccccc3c2)CCCC1 | 152 to 154
29 | CSc1ncc(C#N)c(NC(C)C)n1 | 121 to 122
30 | O=C1CCN(C(=O)c2ccc3nonc3c2)CC1 | 136 to 139
31 | CS(=O)(=O)c1ccc(-c2c(-c3ccc(Cl)cc3)[nH]c3ccc(Cl)cc23)cc1 | 269 to 271
32 | CS(=O)(=O)Nc1cc2occc(=O)c2cc1Oc1ccccc1NC=O | 203 to 204
33 | CN(C#N)C1CN(C(=O)Nc2ccc(C(F)(F)F)cc2)N=C1c1ccc(Cl)cc1 (stereo not drawn) | 216 to 217
34 | CCOC(=O)C1=C(N)NC(c2ccccc2)=CC1c1cccc(Cl)c1 (stereo not drawn) | 161
35 | CN(C)C=C1C(=O)N(c2cccc(C(F)(F)F)c2)c2ccccc21 | 103 to 106
36 | CC(=O)n1cc(C2=CCN(CCCN3c4cccc5cccc(c45)S3(=O)=O)CC2)c2ccccc21 | 163
37 | Cc1nc(-c2cc(C(C)(C)C)c3c(c2)C(C)(C)CO3)no1 | 81 to 82
38 | CSc1ccc(-c2cc(=O)nc(N)o2)cc1 | 266 to 267
39 | OCc1cn2c(n1)CN=C(c1ccccc1Cl)c1cc(Cl)ccc1-2 | 174 to 175
40 | CCOC(=O)c1nnc2ccc(NCCCN3CCC(OC(c4ccccc4)c4ccccc4)CC3)nn12 | 129 to 133
41 | O=C(O)c1c(-c2ccccc2)csc1N1C(=O)c2ccccc2C1=O | 198 to 199
42 | O=C(O)c1cc(Cl)cc2c1CCCC2 | 130 to 140
43 | CCN(c1nc2ccccc2c(=O)o1)c1ccccc1I | 129 to 130
44 | CCC(C(=O)c1ccc(NS(C)(=O)=O)cc1)c1ccccc1 (stereo not drawn) | 143 to 147

Row | Structure (SMILES) | melting point [°C]
45 | Nc1ccc2c(c1)C(=O)CC1(CCN(CCc3ccc4nonc4c3)CC1)O2 | 191 to 193
46 | COc1ccc(C(=O)N2CCc3cc(O)ccc3C2)cc1OC | 58 to 77
47 | CCNC(=O)n1ccc2ccccc21 | 71 to 73
48 | CC(C)CCC1(CCC(C)C)c2cc(Cl)ccc2-c2ccc(Cl)cc21 | 116 to 118
49 | CCOC(=O)N1CCC(Nc2ccc(Cl)cc2N)CC1 | 150
50 | Cc1noc(NS(=O)(=O)c2cc(Cl)sc2Cl)c1Br | 135 to 138
51 | CCCCCCCCCCCCCCCC(=O)N1C[C@H](O)C[C@H]1C(=O)OCCCCCCCCCCCC | 39 to 44
52 | CS(=O)(=O)C(=C1CN(C(c2ccc(Cl)cc2)c2ccc(Cl)cc2)C1)c1cccc(C(=O)NN2CCCCC2)c1 | 175
53 | N#Cc1c(Cl)[nH]c(Cl)c1Cl | > 300
54 | C=CCOC(=O)c1ccc(OC(=O)C2CC3=C(C2)C(C)(C)CCC3(C)C)cc1 | 48 to 50
55 | O=C(O)[C@@H]1CSC(c2ccccc2O)N1C(=O)CCS (stereo partly drawn) | 146 to 148
56 | COc1ccc(C(OCC2(COS(=O)(=O)c3ccc(C)cc3)OC(n3ccc(=O)[nH]c3=O)C(O)C2O)(c2ccccc2)c2ccc(OC)cc2)cc1 (stereo not drawn) | 104 to 105
57 | CCOC(=O)c1cnn2c1c(NC1CC1)nc1ccccc12 | 167 to 169
58 | O=[N+]([O-])c1cnn(-c2c(Cl)cc(Cl)cc2Cl)c1Cl | 78 to 84
59 | CCN(C(=O)N(C)C)c1nnc(S(=O)(=O)N(C)C)s1 | 75 to 77
60 | COc1ccc(-c2cccc3c2/C(=C/c2ccc[nH]2)C(=O)N3)cc1 | 222 to 223
61 | NC(=O)c1ccc(F)c2c1CC(N(CCC(=O)c1c[nH]c3ccc(F)cc13)C1CCC1)CO2 (stereo not drawn) | 139
62 | O=C(NC(=O)c1c(F)cccc1F)Nc1cc(Cl)cc(C(F)(F)F)c1F | 187 to 189
63 | O=C(NCCc1ccccc1)c1ccccc1-c1ccccc1CNS(=O)(=O)c1cccc(C(F)(F)F)c1 | 145
64 | COc1cccc(Nc2ccnc(Nc3ccc(OC)c(OC)c3)n2)c1 | 135 to 138

Other lines, results leading:

Row | melting point [°C] | Structure (SMILES)
65 | 80 to 81 | COc1ccc2cc([C@H](C)C(=O)OCC(=O)N(C)CCO[N+](=O)[O-])ccc2c1
66 | 203 to 205 | CN(C)C=C1CC(=O)Nc2ccccc2C1=O
67 | 129 to 130 | CCCCCCCCCCCCCCCCCCOc1cc(SC)cc(N(CC(=O)O)CC(=O)O)c1
68 | 189 to 190 | O=C1COc2ccc(CCCCCc3ccc4c(c3)NC(=O)CO4)cc2N1
69 | 184 to 185 | Cc1nc2ccccc2n1Cc1ccc(-n2c(C)nc3cnccc32)cc1
70 | 200 to 202 | CCNC1CCN(c2cccc(-c3cnc4[nH]cc(C(=O)C(C)(C)C)c4n3)c2)C1 (stereo not drawn)
71 | 167 to 168 | CCCc1nc2c(N)nc3cc(Oc4ccccc4C(=O)OC)ccc3c2n1CC(C)C
72 | 73 to 75 | CCOc1ccc(C2=NN(CCCCBr)C(=O)[C@H]3CC=CC[C@@H]23)cc1OCC (relative stereo)
73 | 160 | COc1ccc(Cn2c(=O)oc(=O)c3cccnc32)cc1
74 | 122 to 129 | COC(=O)CCc1cc(C(C)(C)C)c(O[Si](C)(C)Oc2c(C(C)(C)C)cc(CCC(=O)OC)cc2C(C)(C)C)c(C(C)(C)C)c1
75 | 80.5 to 81 | Cc1cc(-c2ccccc2)c(=O)n2c1-c1sccc1CC2
76 | 128 to 129 | Cc1ccc(COC(=O)NC(CO)Cc2ccc(O)cc2)cc1 (stereo not drawn)
77 | 288 to 290 | CCOC(=O)C(=C1SC(=O)N(CC(=O)O)C1=O)c1csc(NC(C)=O)n1
78 | 96 to 98 | CC(=O)OC1C(OC(=O)c2ccccc2)C(COC(=O)c2ccccc2)OC1n1cc(F)c(=O)[nH]c1=O (stereo not drawn)
79 | 179 to 181 | CCCCN1CCC(n2c(=O)[nH]c3ccc(Br)cc32)CC1
80 | 213 to 215 | CC(=O)Nc1ccc2c(c1)cc(C(=O)c1ccc(F)cc1)n2C
81 | 70 to 75 | CCOC(=O)CCNC(=O)CN1CCOc2ccc(NC(=O)NCc3ccccc3)cc2C1=O

Row | melting point [°C] | Structure (SMILES)
82 | 238 to 240 | O=C1CCC(N2C(=O)c3cccc(OCc4ccccc4)c3C2=O)C(=O)N1 (stereo not drawn)
83 | 128 to 130 | O=C(NCCC1CC2CCC1C2)n1cc(F)c(=O)[nH]c1=O (stereo not drawn)
84 | 83 | COc1cc(C(=O)c2cccs2)cc(OC)c1OC
85 | 199 to 200 | CC(C)c1cc(C(C)C)c2c(c1)C1(N)C(=O)c3ccccc3C1(O)O2 (stereo not drawn)
86 | 98.5 to 99 | CCCCC[C@@H](CNC(=O)Nc1c(OC(C)C)c(C)nn1C(C)(C)C)c1cccc2c1OCO2
87 | 220 to 222 | CCCOc1cc(C(=O)O)cc(N)c1C(=O)c1ccccc1
88 | 153 to 155 | CCc1cc(C(=O)c2ccccc2Cl)c(-n2c(C)nnc2CNC(=O)Cc2ccccc2)s1
89 | 194 to 195 | CN[C@@H]1CN(c2cc3c(cc2F)c(=O)c(C(=O)O)cn3C(C)(C)C)[C@H]1C (relative stereo)
90 | 141 to 144 | CN(C)CCOc1ccc(C(=O)c2c(-c3ccc(O)cc3)sc3cc(O)ccc23)cc1
91 | 118 to 119 | CC(CCCc1ccccc1)(C(=O)O)c1ccc(CCCNC(=O)c2ccc(-c3ccccn3)cc2)cc1 (stereo not drawn)
92 | 125 to 126 | COc1ccc(OCC(O)COc2cccc3oc(C(=O)O)cc(=O)c23)cc1 (stereo not drawn)
93 | 237 to 239 | Cc1cccc(CNc2c(NC(C)(C)C)c(=O)c2=O)c1C
94 | 169 | CCCCCCCCCCOc1ccc(Cc2cnc(N)nc2N)cc1OC
95 | 101 to 103 | CCc1c(Cc2cc(C)cc(C)c2)n(COCCCCO)c(=O)[nH]c1=O
96 | 80 to 81 | Cc1cc(C)c(C=O)c(-c2ccc(Cl)c(Cl)c2)c1
97 | 97 to 98 | COC(=O)CCC(=O)c1cc2c(s1)CCc1ccccc1C2=O
98 | 178 to 179 | Cc1nn(-c2ccc(F)cc2)cc1C(=O)Nc1ccc(CC(C)C)c(C#N)c1

Reference: a melting point compilation (Tetko et al.; mined from patent text by program, amines drawn as free bases though some values may be those of a salt)
